PMC8744835, “Sterically Hindered Quaternary Phosphonium Salts (QPSs): Antimicrobial Activity and Hemolytic and Cytotoxic Properties” (International Journal of Molecular Sciences, 2021)

How the values were obtained:
[1] = system: Candida albicans ATCC 10231; assay: Fungicidal activity, serial dilution technique; format: cell-based; details: average of three ± SD, - means non-active; for MBC: read-out: Minimum Bactericidal and Fungicidal Concentration (MBC, MFC), Ca
Experimental: (§1) The synthesized compounds were tested for antimicrobial activity against a number of Gram-positive bacteria, Staphylococcus aureus (Sa), Bacillus cereus (Bc) and Enterococcus faecalis (Ef), and Gram-negative bacteria, Escherichia coli (Ec) and Pseudomonas aeruginosa (Pa), including the methicillin-resistant strains S. aureus MRSA-1 (resistant to fluoroquinolones and beta-lactams) and MRSA-2 (resistant to beta-lactams). The methicillin-resistant strains S. aureus were transferred by the Republican Clinical Hospital of the Republic of Tatarstan (Kazan). The fungicidal activity against Candida albicans (Ca) and Trichophyton mentagrophytes var. gypseum (Tm) was studied. These pathogens were chosen because they are the most widespread in the food industry and the healthcare system.
(§2) The antimicrobial activity of the QPSs was determined using the serial dilution technique in Mueller–Hinton Broth 2. The cultures used for testing included the Gram-positive bacteria Staphylococcus aureus ATCC 6538P FDA 209P, Enterococcus faecalis ATCC 2921 and Bacillus cereus ATCC 10702 NCTC 8035, the Gram-negative bacteria Escherichia coli ATCC 25922 and Pseudomonas aeruginosa ATCC 9027, and the fungi Trichophyton mentagrophytes var. gypseum 1773 and Candida albicans ATCC 10231; methicillin-resistant strains of S. aureus MRSA were obtained from hospital patients with chronic tonsillitis (MRSA-1) and sinusitis (MRSA-2) in the Republican Clinical Hospital (Kazan, Russia). Ciprofloxacin and ketoconazole were purchased from Sigma-Aldrich. The bacterial load was 3.0 × 10^5 cfu/mL. The results were recorded every 24 h for 5 days. The cultures were incubated at 37 °C. The experiment was repeated three times. […] The minimum inhibitory concentration (MIC) was defined as the minimum concentration of a compound that inhibits the growth of the corresponding test micro-organism. The growth of bacteria as well as the absence of growth due to the bacteriostatic action of a compound was recorded.

[2] = system: Trichophyton mentagrophytes var. gypseum 1773; assay: Fungicidal activity, serial dilution technique; format: cell-based; details: Tm, average of three ± SD, - means non-active
Experimental: as §1, §2

[3] = system: Enterococcus faecalis ATCC 2921; assay: Antimicrobial activity, serial dilution technique in Mueller–Hinton Broth 2; format: cell-based; details: average of three ± SD, - means non-active
Experimental: as §1
as §2, with “Ciprofloxacin and ketoconazole were purchased from Sigma-Aldrich.” left out

[4] = system: Bacillus cereus ATCC 10702 NCTC 8035; assay: as above; format: cell-based; details: average of three ± SD, - means non-active; for MBC: Bacillus cereus, Bc, read-out: Minimum Bactericidal and Fungicidal Concentration (MBC, MFC), Bc
Experimental: as §1
as §2, with “Ciprofloxacin and ketoconazole were purchased from Sigma-Aldrich.” left out

[5] = system: Staphylococcus aureus ATCC 6538P FDA 209P; assay: as above; format: cell-based; details: average of three ± SD, - means non-active; for MBC: read-out: Minimum Bactericidal and Fungicidal Concentration (MBC, MFC), Sa
Experimental: as §1
as §2, with “Ciprofloxacin and ketoconazole were purchased from Sigma-Aldrich.” left out

[6] = system: Escherichia coli ATCC 25922; assay: as above; format: cell-based; details: average of three ± SD, - means non-active; for MIC: Escherichia coli, ATCC25922, Ec, read-out: Minimum Inhibitory Concentration (MIC), Ec
Experimental: as §1
as §2, with “Ciprofloxacin and ketoconazole were purchased from Sigma-Aldrich.” left out

[7] = system: Pseudomonas aeruginosa ATCC 9027; assay: as above; format: cell-based; details: average of three ± SD, - means non-active; for MBC: read-out: Minimum Bactericidal and Fungicidal Concentration (MBC, MFC), Pa
Experimental: as §1
as §2, with “Ciprofloxacin and ketoconazole were purchased from Sigma-Aldrich.” left out

[8] = system: Escherichia coli ATCC 25922; assay: as above; format: cell-based; details: average of three ± SD, - means non-active
[9] = system: methicillin-resistant S. aureus MRSA-1; assay: as above; format: cell-based, Staphylococcus aureus; details: - means non-active; for Minimum Inhibitory Concentration (MIC), MRSA-1 / MIC: MRSA-1 (resistant to fluoroquinolones and beta-lactams); for MIC: Staphylococcus aureus, MRSA, read-out: Minimum Inhibitory Concentration (MIC), MRSA-1
Experimental: as §1
as §2, with “Ciprofloxacin and ketoconazole were purchased from Sigma-Aldrich.” left out

[10] = system: methicillin-resistant S. aureus MRSA-2; assay: as above; format: cell-based, Staphylococcus aureus; details: - means non-active
Experimental: as §1
as §2, with “Ciprofloxacin and ketoconazole were purchased from Sigma-Aldrich.” left out

[11] = MRSA-2 (resistant to beta-lactams)
[12] = Candida albicans, ATCC10231, Ca
[13] = Pseudomonas aeruginosa, ATCC9027, Pa

Compound	Minimum Inhibitory Concentration (MIC), Ef [3]	Minimum Inhibitory Concentration (MIC), Bc [4]	Minimum Inhibitory Concentration (MIC), Sa [5]	Minimum Inhibitory Concentration (MIC), Ec [6]	Minimum Inhibitory Concentration (MIC), Pa [7]	Minimum Inhibitory Concentration (MIC), MRSA-1 [9]	Minimum Inhibitory Concentration (MIC), MRSA-2 [10, 11]	Minimum Bactericidal and Fungicidal Concentration (MBC, MFC), Ca [1]	Minimum Inhibitory Concentration (MIC), Ca [1]	Minimum Bactericidal and Fungicidal Concentration (MBC, MFC), Tm [2]	Minimum Inhibitory Concentration (MIC), Tm [2]	Minimum Bactericidal and Fungicidal Concentration (MBC, MFC), Ef [3]	Minimum Bactericidal and Fungicidal Concentration (MBC, MFC), Bc [4]	Minimum Bactericidal and Fungicidal Concentration (MBC, MFC), Sa [5]	Minimum Bactericidal and Fungicidal Concentration (MBC, MFC), Pa [7]	Minimum Bactericidal and Fungicidal Concentration (MBC, MFC), Ec [8]	Minimum Bactericidal and Fungicidal Concentration (MBC, MFC), MRSA-1 [9]	Minimum Bactericidal and Fungicidal Concentration (MBC, MFC), MRSA-2 ([10]; MRSA-2)	MBC [1, 12]	MBC [4]	other results
CCCCCCCCCCCC[P+](C(C)(C)C)(C(C)(C)C)C(C)(C)C [Compound 12b]	1.9 ± 0.02 µg/mL	1.9 ± 0.01 µg/mL	0.5 ± 0.03 µg/mL	15.6 ± 1.3 µg/mL	125 ± 11 µg/mL	1.9 ± 0.1 µg/mL	0.5 ± 0.04 µg/mL	15.6 ± 1.3 µg/mL	15.6 ± 1.3 µg/mL	62.5 ± 5.2 µg/mL	31.3 ± 2.4 µg/mL	15.6 ± 1.3 µg/mL	62.5 ± 5.5 µg/mL	–	125 ± 10 µg/mL	15.6 ± 1.2 µg/mL	–	31.3 ± 2.7 µg/mL	–	–	–
CCCCCCCCCCCCCC[P+](C(C)(C)C)(C(C)(C)C)C(C)(C)C [Compound 14a]	1.9 ± 0.1 µg/mL	7.8 ± 0.6 µg/mL	1.9 ± 0.2 µg/mL	–	–	–	–	–	–	125 ± 10 µg/mL	125 ± 11 µg/mL	3.9 ± 0.2 µg/mL	–	–	–	1.9 ± 0.1 µg/mL	7.8 ± 0.6 µg/mL	62.5 ± 5.3 µg/mL	15.6 ± 1.2 µg/mL	15.6 ± 1.3 µg/mL	MIC ([1]; Candida albicans, ATCC10231, Ca, read-out: Minimum Inhibitory Concentration (MIC), Ca): 7.8 ± 0.6 µg/mL; MBC ([5]; Staphylococcus aureus, Sa): 1.9 ± 0.1 µg/mL; MIC [6]: 1.9 ± 0.1 µg/mL; MBC [7, 13]: 125 ± 11 µg/mL; MIC ([7]; Pseudomonas aeruginosa, ATCC9027, Pa, read-out: Minimum Inhibitory Concentration (MIC), Pa): 15.6 ± 1.1 µg/mL; MIC [9]: 0.5 ± 0.03 µg/mL; MIC ([10]; Staphylococcus aureus, MRSA, MRSA-2 (resistant to beta-lactams), read-out: Minimum Inhibitory Concentration (MIC), MRSA-2): 0.5 ± 0.04 µg/mL
CCCCCCCCCCCCCCCC[P+](C(C)(C)C)(C(C)(C)C)C(C)(C)C [Compound 16b]	0.5 ± 0.04 µg/mL	1.9 ± 0.1 µg/mL	0.5 ± 0.03 µg/mL	1.9 ± 0.1 µg/mL	3.9 ± 0.02 µg/mL	1.9 ± 0.1 µg/mL	0.5 ± 0.03 µg/mL	3.9 ± 0.2 µg/mL	3.9 ± 0.2 µg/mL	–	–	0.5 ± 0.03 µg/mL	31.3 ± 2.4 µg/mL	0.5 ± 0.03 µg/mL	62.5 ± 5.3 µg/mL	1.9 ± 0.1 µg/mL	15.6 ± 1.2 µg/mL	3.9 ± 0.2 µg/mL	–	–	MBC ([2]; Trichophyton mentagrophytes, read-out: Minimum Bactericidal and Fungicidal Concentration (MBC, MFC), Tm): 62.5 ± 5.5 µg/mL; MIC ([2]; Trichophyton mentagrophytes, read-out: Minimum Inhibitory Concentration (MIC), Tm): 62.5 ± 5.6 µg/mL

Continued, in another order:

Minimum Inhibitory Concentration (MIC), Ef [3]	Minimum Inhibitory Concentration (MIC), Bc [4]	Minimum Inhibitory Concentration (MIC), Sa [5]	Minimum Inhibitory Concentration (MIC), Ec [6]	Minimum Inhibitory Concentration (MIC), Pa [7]	Minimum Inhibitory Concentration (MIC), MRSA-1 [9]	Minimum Inhibitory Concentration (MIC), MRSA-2 [10, 11]	Compound	Minimum Bactericidal and Fungicidal Concentration (MBC, MFC), Ca [1]	Minimum Inhibitory Concentration (MIC), Ca [1]	Minimum Bactericidal and Fungicidal Concentration (MBC, MFC), Tm [2]	Minimum Inhibitory Concentration (MIC), Tm [2]	Minimum Bactericidal and Fungicidal Concentration (MBC, MFC), Ef [3]	Minimum Bactericidal and Fungicidal Concentration (MBC, MFC), Bc [4]	Minimum Bactericidal and Fungicidal Concentration (MBC, MFC), Sa [5]	Minimum Bactericidal and Fungicidal Concentration (MBC, MFC), Pa [7]	Minimum Bactericidal and Fungicidal Concentration (MBC, MFC), Ec [8]	Minimum Bactericidal and Fungicidal Concentration (MBC, MFC), MRSA-1 [9]	Minimum Bactericidal and Fungicidal Concentration (MBC, MFC), MRSA-2 ([10]; MRSA-2)	MBC [1, 12]	MBC [4]	other results
1.9 ± 0.1 µg/mL	31.3 ± 2.2 µg/mL	1.9 ± 0.1 µg/mL	15.6 ± 1.3 µg/mL	15.6 ± 1.3 µg/mL	7.8 ± 0.6 µg/mL	3.9 ± 0.2 µg/mL	CCCCCCCCCCCCCCCCCC[P+](C(C)(C)C)(C(C)(C)C)C(C)(C)C [Compound 18b]	15.6 ± 1.2 µg/mL	7.8 ± 0.7 µg/mL	250 ± 19 µg/mL	250 ± 19 µg/mL	3.9 ± 0.2 µg/mL	125 ± 11 µg/mL	3.9 ± 0.2 µg/mL	31.3 ± 2.5 µg/mL	62.5 ± 5.4 µg/mL	15.6 ± 1.2 µg/mL	3.9 ± 0.3 µg/mL	–	–	–
–	15.6 ± 1.3 µg/mL	–	–	31.3 ± 2.4 µg/mL	–	1.9 ± 0.1 µg/mL	CCCCCCCCCCCCCCCCCCCC[P+](C(C)(C)C)(C(C)(C)C)C(C)(C)C [Compound 20a]	–	31.3 ± 2.5 µg/mL	31.3 ± 2.5 µg/mL	31.3 ± 2.3 µg/mL	–	–	–	–	–	31.3 ± 2.7 µg/mL	–	62.5 ± 5.7 µg/mL	31.3 ± 2.6 µg/mL	MBC ([3]; Enterococcus faecalis, ATCC2921, Ef, read-out: Minimum Bactericidal and Fungicidal Concentration (MBC, MFC), Ef): 7.8 ± 0.6 µg/mL; MIC ([3]; Enterococcus faecalis, ATCC2921, Ef, read-out: Minimum Inhibitory Concentration (MIC), Ef): 3.9 ± 0.2 µg/mL; MBC ([5]; Staphylococcus aureus, Sa): 3.9 ± 0.2 µg/mL; MIC ([5]; Staphylococcus aureus, Sa, read-out: Minimum Inhibitory Concentration (MIC), Sa): 3.9 ± 0.2 µg/mL; MIC [6]: 62.5 ± 5.5 µg/mL; MBC [7, 13]: 125 ± 11 µg/mL; MBC ([8]; Escherichia coli, ATCC25922, Ec, read-out: Minimum Bactericidal and Fungicidal Concentration (MBC, MFC), Ec): 62.5 ± 5.5 µg/mL; MIC [9]: 7.8 ± 0.6 µg/mL; MBC ([10]; Staphylococcus aureus, MRSA, MRSA-2, read-out: Minimum Bactericidal and Fungicidal Concentration (MBC, MFC), MRSA-2): 15.6 ± 1.2 µg/mL
